Measured values published in patent US5502242A, “Propiolate ester compound an acaricide containing the same as an active ingredient and an acaricidal method” (Sumitomo Chemical Company, Limited, priority 1993, dated 1996).

Tests used:
Assay type in all cases: in vivo
[1] = tested on: Dermatophagoides pteronyssinus; assay: Activity against Dermatophagoides pteronyssinus (treated filter paper, Biological Test Example 1); conditions: 24 h, 0.8 g/m^2 on filter paper, after one day
Description: (§1) A piece of filter paper (diameter: 4 cm) was impregnated uniformly with an acetone solution of the present compound so that the amount of the impregnated compound was 0.8 g/m^2 after being air-dried. Approximately twenty heads of mites (Tyrophagus putrescentiae, Dermatophagoides farinae Hughes and Dermatophagoides pteronyssinuis) were put on the surface of the treated filter paper. An adhesive substance was applied on the circumference of the filter paper for preventing escape. After one day, the mortality was examined. The results for Tyrophagus putrescentiae, Dermatophagoides farinae Hughes and Dermatophagoides pteronyssinus are shown in Table 3, Table 4, and Table 5, respectively.

[2] = tested on: Dermatophagoides pteronyssinus; assay: Residual activity against Dermatophagoides pteronyssinus (treated filter paper, Biological Test Example 2); conditions: 24 h, 0.8 g/m^2 on filter paper, mites put on seven days after treatment, mortality after one day
Description: A piece of filter paper (diameter: 4 cm) was impregnated uniformly with an acetone solution of the compound sample so that the amount of the compound was 0.8 g/m^2 after being air-dried. After seven days, approximately twenty heads of mites (Dermatophagoides pteronyssinus) were put on the surface of the treated filter paper. An adhesive substance was applied on the circumference of the filter paper for preventing escape. After one day, the mortality was examined.

Tyrophagus putrescentiae [3] = assay: Activity against Tyrophagus putrescentiae (treated filter paper, Biological Test Example 1); conditions: 24 h, 0.8 g/m^2 on filter paper, after one day
Description: as §1

[4] = tested on: Dermatophagoides farinae Hughes; assay: Activity against Dermatophagoides farinae Hughes (treated filter paper, Biological Test Example 1); conditions: 24 h, 0.8 g/m^2 on filter paper, after one day
Description: as §1

Tyrophagus putrescentiae [5] = assay: Fumigating activity against Tyrophagus putrescentiae (heated porous ceramic plate in peat grady chamber, Biological Test Example 3); conditions: 24 h, 55 mg/m^3, ceramic plate heated at 175° C., after twenty-four hours
Description: A piece of filter paper (diameter: 4 cm) was placed in an aluminum plate and an adhesive substance was applied on the circumference of the filter paper for preventing escape. Fifty to a hundred heads of mites (Tyrophagus putrescentiae) were put with little feed on the filter paper. Three sets of such filter paper with mites were placed on three corners (approximately 30 cm from the wall) in a floor of a peat grady chamber (1.8 m ×1.8 m ×1.8 m). A porous ceramic plate (4 cm ×4 cm ×1.2 cm) impregnated with an acetone solution of the present compound (concentration: 55 mg/m^3) was heated at 175° C. with an electric heater placed on the center of the floor of the chamber. After twenty-four hours, the mortality was examined.

Structure (SMILES) | mortality at 0.8 g/m2 [1] [%] | mortality at 0.8 g/m2 [2] [%] | mortality at 0.8 g/m2 (Tyrophagus putrescentiae [3]) [%] | mortality at 0.8 g/m2 [4] [%] | mortality at 55 mg/m3 (Tyrophagus putrescentiae [5]) [%]
C#CC(=O)OCCCOc1ccc(C)cc1C [Compound 9] | 100 | 100 | 100 | 100 | 
C#CC(=O)OCCCCCCOc1ccccc1 [Compound 19] |  | 100 | 100 | 100 | 
C#CC(=O)OCCOCc1ccc(C)cc1 [Compound 18] | 100 | 100 | 100 | 100 | 
C#CC(=O)OCCCCCCCCc1ccccc1 [Compound 4] | 100 | 100 | 100 | 100 | 
C#CC(=O)OCCOCc1ccccc1 [Compound 16, 2-benzyloxyethyl propiolate] | 100 | 83 | 100 | 100 | 
C#CC(=O)OCCCCOc1ccccc1C [Compound 10, 4-(2-methylphenoxy)butyl propiolate] | 100 | 100 | 100 | 100 | 
C#CC(=O)OCCCCCOc1ccccc1 [Compound 8] | 100 | 100 | 100 | 100 | 
C#CC(=O)OCC(C)OCc1ccccc1 (centres unmarked) [Compound 29] |  | 82 | 100 | 100 | 
C#CC(=O)OCCCOc1c(C)cccc1C [Compound 27] |  | 100 | 100 | 86 | 
C#CC(=O)OCCCCCOc1c(C)cccc1C [Compound 14] | 100 | 100 | 100 | 100 | 
C#CC(=O)OCCCCCCCCCc1ccccc1 [Compound 5] | 100 | 100 | 100 | 100 | 
C#CC(=O)OCCCCCOc1ccc(C)cc1 [Compound 21] |  | 100 | 100 | 100 | 
C#CC(=O)OCCCCOc1c(C)cccc1C [Compound 13] | 100 | 92 | 100 | 100 | 
C#CC(=O)OCCCCCCc1ccccc1 [Compound 2, 6-phenylhexyl propiolate] | 100 | 100 | 100 | 100 | 73
C#CC(=O)OCCCCCCCc1ccccc1 [Compound 3, 7-phenylheptyl propiolate] | 100 | 100 | 100 | 100 | 96
C#CC(=O)OCCCOc1ccc(CC)cc1 [Compound 20] |  | 100 | 100 | 100 | 
C#CC(=O)OCCCCCc1ccccc1 [Compound 1, 5-phenylpentyl propiolate] | 100 | 95 | 100 | 100 | 76
C#CC(=O)OCCCCOc1ccccc1 [Compound 7] | 100 | 100 | 100 | 100 | 
C#CC(=O)OCCCOc1ccccc1 [Compound 6] | 100 | 100 | 100 | 100 | 
C#CC(=O)OCCCCOc1c(C(C)C)cccc1C(C)C [Compound 15] | 100 | 95 | 100 | 100 | 
C#CC(=O)OCCCOCc1ccccc1 [Compound 17] | 100 | 100 | 100 | 100 | 
O=C(Oc1ccccc1)c1ccccc1O [Phenyl salicylate, reference compound] |  |  |  |  | 28
C#CC(=O)OCCOCc1ccc(CC)cc1 [Compound 28] |  | 97 | 100 | 100 | 
C#CC(=O)OCC(C)COc1ccccc1 (centres unmarked) [Compound 23] |  | 100 | 100 | 100 | 
C#CC(=O)OCC(C)COc1ccc(C)cc1 (centres unmarked) [Compound 24] |  | 100 | 100 | 100 | 
C#CC(=O)OCCCCOc1ccc(CC)cc1 [Compound 22] |  | 100 | 96 | 100 | 
C#CC(=O)OCCCCOc1ccc(C)cc1 [Compound 11, 4-(4-methylphenoxy)butyl propiolate] | 100 | 100 | 100 | 100 | 79
C#CC(=O)OCCC(C)COc1ccccc1 (centres unmarked) [Compound 25] |  | 100 | 100 | 100 | 
C#CC(=O)OCCC(C)COc1ccc(C)cc1 (centres unmarked) [Compound 26] |  | 94 | 100 | 96 | 
C#CC(=O)OCCCCOc1ccc(C)cc1C [Compound 12] | 100 | 100 | 100 | 100 | 
